# Measurements: ChEMBL document CHEMBL1126357, “Synthesis of sodium salt of ortho-(difluoromethyl)phenyl--ketoside of N-acetylneuraminic acid : a mechanism-based inhibitor of Clostridium perfringens neuraminidase” (Bioorg Med Chem Lett, 1992)
# Assay: Ki apparent against Clostridium perfringens neuraminidase was determined
# Settings: read-out: Ki app
compound,measurement,value
CC(=O)NC1C(O)CC(Oc2ccccc2C(F)F)(C(=O)O)OC1[C@H](O)[C@H](O)CO (stereo partly specified),Ki,150 µM
